Source: ChEMBL document CHEMBL1201862, “PubChem BioAssay data set” (2004)
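Results reflect a 48-hour exposure of cells in 96-well plates to compound at five concentrations. At the GI50, growth is halved.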 The source made the active and inactive calls. No stated cut-off is given here; in the data, active = GI50 up to about 1.1 µM and inactive = higher.

Experiments:
Assay in all cases: DTP human tumour cell line panel, 48 h
[1] = tested on: 786-0
[2] = tested on: A498
[3] = tested on: A549
[4] = tested on: ACHN
[5] = tested on: CAKI-1
[6] = tested on: CCRF-CEM
[7] = tested on: COLO 205
[8] = tested on: DLD-1
[9] = tested on: DMS-114
[10] = tested on: DMS-273
[11] = tested on: EKVX
[12] = tested on: HCC 2998
[13] = tested on: HCT-116
[14] = tested on: HCT-15
[15] = tested on: HL-60
[16] = tested on: HOP-18
[17] = tested on: HOP-62
[18] = tested on: HOP-92
[19] = tested on: HT-29
[20] = tested on: IGROV-1
[21] = tested on: KM-20L2
[22] = tested on: KM12
[23] = tested on: LXFL 529
[24] = tested on: M14
[25] = tested on: M19-MEL
[26] = tested on: MOLT-4
[27] = tested on: Malme-3M
[28] = tested on: NCI-H226
[29] = tested on: NCI-H23
[30] = tested on: NCI-H460
[31] = tested on: NCI-H522
[32] = tested on: OVCAR-3
[33] = tested on: OVCAR-4
[34] = tested on: OVCAR-8
[35] = tested on: RXF 393
[36] = tested on: SF-268
[37] = tested on: SF-295
[38] = tested on: SF-539
[39] = tested on: SK-MEL-28
[40] = tested on: SK-MEL-2
[41] = tested on: SK-MEL-5
[42] = tested on: SK-OV-3
[43] = tested on: SN12C
[44] = tested on: SNB-19
[45] = tested on: SNB-75
[46] = tested on: SNB-78
[47] = tested on: SR
[48] = tested on: SW-620
[49] = tested on: TK-10
[50] = tested on: U-251
[51] = tested on: UACC-257
[52] = tested on: UACC-62
[53] = tested on: UO-31
[54] = tested on: XF498
[55] = tested on: K562
[56] = tested on: LOX IMVI
[57] = tested on: OVCAR-5
[58] = tested on: RPMI-8226
[59] = tested on: RXF 631

Measured: GI50

Cc1cc(Cl)ccc1N1C(=O)C(=O)C(c2nc3ccccc3o2)C(=O)C1=O
> 100 µM: [14]
inactive: [1] > 100 µM | [2] > 100 µM | [3] > 100 µM | [4] > 100 µM | [5] > 100 µM | [6] 23.7 µM | [7] 31.1 µM | [8] 32.9 µM | [9] 68.9 µM | [10] > 100 µM | [11] > 100 µM | [12] > 100 µM | [13] 46.5 µM | [15] 33.2 µM | [16] > 100 µM | [17] > 100 µM | [18] 58.7 µM | [19] 65.8 µM | [20] 35.6 µM | [21] > 100 µM | [22] > 100 µM | [23] 71.3 µM | [24] 67 µM | [25] > 100 µM | [26] 30.4 µM | [27] > 100 µM | [28] > 100 µM | [29] > 100 µM | [30] > 100 µM | [31] > 100 µM | [32] 61.1 µM | [33] > 100 µM | [34] > 100 µM | [35] > 100 µM | [36] > 100 µM | [37] > 100 µM | [38] > 100 µM | [39] 96.4 µM | [40] > 100 µM | [41] > 100 µM | [42] > 100 µM | [43] > 100 µM | [44] > 100 µM | [45] 63.4 µM | [46] > 100 µM | [47] 34 µM | [48] 43.7 µM | [49] > 100 µM | [50] > 100 µM | [51] 71 µM | [52] 65 µM | [53] > 100 µM | [54] > 100 µM

CCOC(=O)NC(=O)c1cn(CCCOC(=O)NCCCCCCNC(=O)OCCCn2c(=O)c(C(=O)NC(=O)OCC)cn(C)c2=O)c(=O)n(C)c1=O
> 100 µM: [14]
inactive: [1] > 100 µM | [2] > 100 µM | [3] > 100 µM | [4] > 100 µM | [5] > 100 µM | [6] > 100 µM | [7] > 100 µM | [8] > 100 µM | [9] > 100 µM | [10] > 100 µM | [12] > 100 µM | [13] > 100 µM | [15] > 100 µM | [16] 52.4 µM | [18] > 100 µM | [19] > 100 µM | [20] > 100 µM | [55] > 100 µM | [21] > 100 µM | [22] > 100 µM | [56] > 100 µM | [23] > 100 µM | [24] > 100 µM | [25] > 100 µM | [26] > 100 µM | [27] > 100 µM | [28] > 100 µM | [29] > 100 µM | [30] > 100 µM | [31] > 100 µM | [32] > 100 µM | [33] > 100 µM | [57] > 100 µM | [34] > 100 µM | [58] > 100 µM | [35] 24.8 µM | [59] > 100 µM | [36] > 100 µM | [39] > 100 µM | [40] > 100 µM | [42] > 100 µM | [43] > 100 µM | [45] 22.2 µM | [48] > 100 µM | [49] 88.7 µM | [50] 61.2 µM | [51] > 100 µM | [52] > 100 µM | [53] > 100 µM
